# Assay results: the supplement of paper PMC10307832
# Legend:
# Assay in all cases: relative viability (nuclei count vs DMSO), 5 days (fraction); higher = more cells survive
# [1] = test system: 201T
# Outline: (§1)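 Relative viability was taken as the ratio of nuclei in treated wells to nuclei in vehicle wells. Lung cancer cell lines in 1536-well plates received compounds by pin tool one day after seeding, either one drug alone or a fixed anchor-drug dose plus five library-drug doses (not always all listed) in √10 steps. Nuclei were counted on 4× images after 5 days of treatment, and values are medians of duplicate plates.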
# [2] = test system: A-427
# Outline: as §1
# [3] = test system: COR-L23
# Outline: as §1
# [4] = test system: H3255
# Outline: as §1
# [5] = test system: LCLC-103H
# Outline: as §1
# [6] = test system: LCLC-97TM1
# Outline: as §1
# [7] = test system: LK-2
# Outline: as §1
# [8] = test system: LU99A
# Outline: as §1
# [9] = test system: NCI-H1563
# Outline: as §1
# [10] = test system: NCI-H1650
# Outline: as §1
# [11] = test system: NCI-H1793
# Outline: as §1
# [12] = test system: NCI-H1944
# Outline: as §1
# [13] = test system: NCI-H2347
# Outline: as §1
# [14] = test system: NCI-H23
# Outline: as §1
# [15] = test system: NCI-H460
# Outline: as §1
# [16] = test system: NCI-H650
# Outline: as §1
# [17] = test system: NCI-H727
# Outline: as §1
# [18] = test system: NCI-H838
# Outline: as §1
# [19] = test system: PC-14
# Outline: as §1
# [20] = test system: PC-3 [JPC-3]
# Outline: as §1
# [21] = test system: SW 1573
# Outline: as §1
# [22] = test system: SW 900
# Outline: as §1
compound,measurement,setting,value
C=C1C(=O)O[C@@H](CCCCCCCC)[C@@H]1C(=O)O [C-75] + COc1cc2c(Oc3ccc(NC(=O)C4(C(=O)Nc5ccc(F)cc5)CC4)cc3F)ccnc2cc1OCCCN1CCOCC1 [Foretinib] (partner 0.25 µM),relative viability,[1]; first compound 0.08 µM,1.08
same,relative viability,[1]; first compound 0.253 µM,1.24
same,relative viability,[1]; first compound 0.8 µM,1.08
same,relative viability,[1]; first compound 2.53 µM,0.64
same,relative viability,[1]; first compound 8 µM,1.03
same,relative viability,[2]; first compound 0.08 µM,0.898
same,relative viability,[2]; first compound 0.253 µM,1.18
same,relative viability,[2]; first compound 0.8 µM,0.969
same,relative viability,[2]; first compound 2.53 µM,1.03
same,relative viability,[2]; first compound 8 µM,0.992
same,relative viability,[3]; first compound 0.08 µM,0.903
same,relative viability,[3]; first compound 0.253 µM,1
same,relative viability,[3]; first compound 0.8 µM,0.856
same,relative viability,[3]; first compound 2.53 µM,0.9
same,relative viability,[3]; first compound 8 µM,0.965
same,relative viability,[4]; first compound 0.08 µM,0.837
same,relative viability,[4]; first compound 0.253 µM,0.927
same,relative viability,[4]; first compound 0.8 µM,0.73
same,relative viability,[4]; first compound 2.53 µM,0.736
same,relative viability,[4]; first compound 8 µM,0.983
same,relative viability,[5]; first compound 0.08 µM,0.814
same,relative viability,[5]; first compound 0.253 µM,0.736
same,relative viability,[5]; first compound 0.8 µM,0.687
same,relative viability,[5]; first compound 2.53 µM,0.598
same,relative viability,[5]; first compound 8 µM,0.743
same,relative viability,[6]; first compound 0.08 µM,0.934
same,relative viability,[6]; first compound 0.253 µM,1.01
same,relative viability,[6]; first compound 0.8 µM,0.951
same,relative viability,[6]; first compound 2.53 µM,0.847
same,relative viability,[6]; first compound 8 µM,0.926
same,relative viability,[7]; first compound 0.08 µM,0.944
same,relative viability,[7]; first compound 0.253 µM,1.23
same,relative viability,[7]; first compound 0.8 µM,1.15
same,relative viability,[7]; first compound 2.53 µM,1.35
same,relative viability,[7]; first compound 8 µM,1.06
same,relative viability,[8]; first compound 0.08 µM,0.809
same,relative viability,[8]; first compound 0.253 µM,0.71
same,relative viability,[8]; first compound 0.8 µM,0.831
same,relative viability,[8]; first compound 2.53 µM,0.783
same,relative viability,[8]; first compound 8 µM,0.63
same,relative viability,[9]; first compound 0.08 µM,0.953
same,relative viability,[9]; first compound 0.253 µM,0.955
same,relative viability,[9]; first compound 0.8 µM,0.883
same,relative viability,[9]; first compound 2.53 µM,0.844
same,relative viability,[9]; first compound 8 µM,0.877
same,relative viability,[10]; first compound 0.08 µM,1.2
same,relative viability,[10]; first compound 0.253 µM,1.41
same,relative viability,[10]; first compound 2.53 µM,1.11
same,relative viability,[10]; first compound 8 µM,1.04
same,relative viability,[11]; first compound 0.08 µM,0.572
same,relative viability,[11]; first compound 0.253 µM,0.721
same,relative viability,[11]; first compound 0.8 µM,0.569
same,relative viability,[11]; first compound 2.53 µM,0.46
same,relative viability,[11]; first compound 8 µM,0.658
same,relative viability,[12]; first compound 0.08 µM,0.899
same,relative viability,[12]; first compound 0.253 µM,0.756
same,relative viability,[12]; first compound 0.8 µM,0.829
same,relative viability,[12]; first compound 8 µM,0.834
same,relative viability,[13]; first compound 0.08 µM,0.83
same,relative viability,[13]; first compound 0.253 µM,1.21
same,relative viability,[13]; first compound 2.53 µM,0.876
same,relative viability,[13]; first compound 8 µM,0.472
same,relative viability,[14]; first compound 0.08 µM,0.795
same,relative viability,[14]; first compound 0.253 µM,1.08
same,relative viability,[14]; first compound 0.8 µM,1.02
same,relative viability,[14]; first compound 2.53 µM,0.808
same,relative viability,[14]; first compound 8 µM,0.881
same,relative viability,[15]; first compound 0.08 µM,1.01
same,relative viability,[15]; first compound 0.253 µM,1.09
same,relative viability,[15]; first compound 0.8 µM,0.891
same,relative viability,[15]; first compound 8 µM,0.977
same,relative viability,[16]; first compound 0.08 µM,1
same,relative viability,[16]; first compound 0.253 µM,0.818
same,relative viability,[16]; first compound 0.8 µM,1.04
same,relative viability,[16]; first compound 2.53 µM,0.995
same,relative viability,[16]; first compound 8 µM,0.993
same,relative viability,[17]; first compound 0.08 µM,0.796
same,relative viability,[17]; first compound 0.253 µM,1.33
same,relative viability,[17]; first compound 0.8 µM,0.695
same,relative viability,[17]; first compound 8 µM,0.917
same,relative viability,[18]; first compound 0.08 µM,1.06
same,relative viability,[18]; first compound 0.8 µM,0.948
same,relative viability,[18]; first compound 2.53 µM,0.861
same,relative viability,[18]; first compound 8 µM,0.964
same,relative viability,[19]; first compound 0.08 µM,0.949
same,relative viability,[19]; first compound 0.253 µM,0.911
same,relative viability,[19]; first compound 0.8 µM,0.956
same,relative viability,[19]; first compound 2.53 µM,0.74
same,relative viability,[19]; first compound 8 µM,0.891
same,relative viability,[20]; first compound 0.08 µM,1.05
same,relative viability,[20]; first compound 0.253 µM,1.02
same,relative viability,[20]; first compound 0.8 µM,1.06
same,relative viability,[20]; first compound 2.53 µM,1.06
same,relative viability,[20]; first compound 8 µM,1.2
same,relative viability,[21]; first compound 0.08 µM,1.03
same,relative viability,[21]; first compound 0.253 µM,0.943
same,relative viability,[21]; first compound 0.8 µM,0.951
same,relative viability,[21]; first compound 2.53 µM,0.74
same,relative viability,[21]; first compound 8 µM,0.731
same,relative viability,[22]; first compound 0.08 µM,0.913
same,relative viability,[22]; first compound 0.253 µM,1.07
same,relative viability,[22]; first compound 0.8 µM,0.842
same,relative viability,[22]; first compound 2.53 µM,0.945
same,relative viability,[22]; first compound 8 µM,0.804
